Experimental findings from patent publication US9327145B2, “Cosmetic compositions comprising manikara multinervis and extracts thereof” (Cognis IP Management GmbH, priority 2009, dated 2016) are described below.

For assay [1], the system named is human dermal fibroblasts. In words: Pro-collagen (type I) effect: released type I collagen (ELISA) and cellular proteins (Bradford). Type of assay: cell-based. Conditions: 5 μg/ml; 3 days; percentage referring to the control medium; mean +/- SEM. The protocol:
Manilkara multinervis extract according to example 1 was incubated on human dermal fibroblasts cultured in vitro and the release of collagen type I was measured in cell culture medium through an ELISA method. It was tested in comparison to the positive reference vitamin C (ascorbic acid). The human dermal fibroblasts were cultured within growth medium enriched with Fetal Calf Serum (FCS) and incubated for 1 day at 37° C. […] Thereafter, the cell number was measured by quantification of cellular proteins (Bradford's method) while the level of collagen synthesis was determined by quantification of collagen peptides in cell culture medium (ELISA method). The results were calculated through a reference range of proteins or collagen and then expressed in percentage referring to the control medium and presented as a mean+/−SEM (Standard Error of Mean) from 4 assays in triplicate.
(In general: An ELISA detects its analyte on a solid surface through an enzyme-linked reagent.)

The next assay relates to collagen type I. In words: Anti-glycation: non enzymatic glycation of collagen type I incubated with glucose (Schiff's bases fluorescence). Type of assay: biochemical. Conditions: 3 weeks at 45° C., mean +/- SEM. The protocol: In order to evaluate the potential of Manilkara multinervis extract to reduce the rate of “non enzymatic” glycation of proteins such as skin collagen, the extract was tested in comparison to aminoguanidine as a positive reference. The “non-enzymatic” glycation results from the reaction of proteins with reducing sugars such as glucose and […]. These sugars react with the free amino groups present in the proteins to form the so called “Schiff's bases”, ultimately resulting in so-called “advanced glycosylation endproducts”. In human skin, the process of “non enzymatic” glycation causes in time a decrease of strength and an atrophy of dermis which are characteristic of skin aging.
The extracts were tested in vitro by incubating collagen type I in solution with glucose during 3 weeks at 45° C. Then the level of “non enzymatic” glycation was determined by measuring the rate of “Schiff's bases” through the record of fluorescence at 430 nm (excitation at 350 nm) of the supernatant solution recovered after centrifugation of the solutions during 15 minutes at 3500 rpm (revolution per minute). The rates of “non enzymatic” glycation were calculated as % referring to the control with glucose. The assays were repeated up to 6 times and the results were expressed in percentage referring to the control with glucose then presented as a mean+/− the SEM (standard error of mean) and statistically evaluated by the student t test. All % values given are weight-%.

Assay [2] relates to human dermal fibroblasts. In words: Fibulin-5 synthesis by immunocytochemistry (ICC). The format is cell-based. The settings on record: 10 ng/ml, mean only. The procedure:
Manilkara multinervis extract according to example 1 was incubated on human dermal fibroblasts cultured in vitro and the synthesis of fibulin-5 was measured in cell culture medium through an ICC method. It was tested in comparison to the positive reference TGF-β1 (Transforming Growth Factor-β1).
The human dermal fibroblasts were cultured within growth medium enriched with Fetal Calf Serum (FCS) and incubated for 3 days at 37° C. Then the growth medium was exchanged for a standard medium containing FCS at 1% and the Manilkara multinervis extract according to example 1 and incubated for 5 days at 37° C. Thereafter, the fibulin-5 synthesis was measured by immunocytochemistry (ICC) technique. The results were expressed in percentage of staining occupation and presented for 2 assays as a mean+/−SEM (Standard Error of Mean) of 6 measurements.

Assay [3] deals with human dermal fibroblasts. Description: Tropoelastin synthesis by immunocytochemistry (ICC). Type of assay: cell-based. Conditions: 10 ng/ml. The protocol: Manilkara multinervis extract according to example 1 was incubated on human dermal fibroblasts cultured in vitro and the synthesis of tropoelastin was measured in cell culture medium through an ICC method. It was tested in comparison to the positive reference TGF-β1 (Transforming Growth Factor-β1).
The human dermal fibroblasts were cultured within growth medium enriched with Fetal Calf Serum (FCS) and incubated for 3 days at 37° C. Then the growth medium was exchanged for a standard medium containing FCS at 1% and the Manilkara multinervis extract according to example 1 and incubated several days at 37° C. Thereafter, the tropoelastin synthesis was measured by immunocytochemistry (ICC) technique. The results were expressed in percentage of staining occupation and presented for 3 assays as a mean+/−SEM (Standard Error of Mean) of 6 measurements.

Marks after values point to notes of the source that are not given here.

Consider `O=C1O[C@H]([C@@H](O)CO)C(O)=C1O` [Vitamin C, ascorbic acid], for which, in the assay on human dermal fibroblasts [1], the “Cellular Proteins” value is listed as 97 +/− 4% and the “Released type I Collagen” value is reported as 138 +/− 14** %.

As to `N=C(N)NN` [Aminoguanidine, aminoguanidine], the “Rate of Schiff's bases in %/control with glucose” value in the assay with collagen type I (0.02%) is reported as 47 +/− 1** (n = 6) %/control with glucose; with collagen type I (0.05%), 34 +/− 1** (n = 6) %/control with glucose; in the assay on collagen type I (0.1%) it was 27 +/− 1** (n = 6) %/control with glucose.

Consider “TGF-β1: positive reference TGF-β1 (Transforming Growth Factor-β1)”, for which the “% of staining occupation Assay 1 (fibulin-5)” value in the assay on human dermal fibroblasts [2] (Assay 1, control 15.57 +/− 4.38) came to 79.99%. Besides, the “% of staining occupation Assay 2 (fibulin-5)” value in the assay with human dermal fibroblasts [2] (Assay 2, control 2.65 +/− 0.36) was determined as 18.8%. In the assay on human dermal fibroblasts [3], the “stimulation of tropoelastin synthesis (mean)” value was 82%.
